# Where “and” joins values, the source holds several entries; their conditions need not be identical. Identical values can stand only once. Inconclusive results and toxic doses are left out.
# System: P388 leukemia ip, CD2F1 mice, survival T/C
# Assay: NCI In Vivo Anticancer Drug Screen. Data for tumor model P388 Leukemia (intraperitoneal) in CD2F1 (CDF1) mice
# Settings: endpoint: median survival time, higher = longer survival
# How it was run: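 Mice carrying the transplanted tumor received test compound or vehicle. Survival was recorded in each group, and the value is the treated-group measurement divided by that of the vehicle-treated control group.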
# [1] = dose: 50.0 mg/kg/injection, schedule: Q01DX005 (ip), vehicle: Klucel (hydroxypropylcellulose) (HPC)
# [2] = dose: 100.0 mg/kg/injection, schedule: Q01DX005 (ip), vehicle: Klucel (hydroxypropylcellulose) (HPC)
# [3] = dose: 200.0 mg/kg/injection, schedule: Q01DX005 (ip), vehicle: Klucel (hydroxypropylcellulose) (HPC)
# [4] = dose: 50.0 mg/kg/injection, schedule: Q01DX005 (ip), vehicle: saline with Tween-80
# [5] = dose: 100.0 mg/kg/injection, schedule: Q01DX005 (ip), vehicle: saline with Tween-80
# [6] = dose: 200.0 mg/kg/injection, schedule: Q01DX005 (ip), vehicle: saline with Tween-80
smiles,measurement,setting,value
CC(=O)Nc1ccc2c(c1)N(O)C(=O)C2(C)C,T/C,[1],97 % of control
same,T/C,[2],95 % of control
same,T/C,[3],102 % of control
COC1CCC2C(C1)C(C1CCCCC1)C1CCCCC1C2C1CCCCC1 (stereo unspecified),T/C,[4],96 % of control
same,T/C,[5],93 % of control
same,T/C,[6],95 % of control
CC(=O)CCC(=O)c1ccoc1,T/C,"dose: 3.12 mg/kg/injection, schedule: Q01DX005 (ip), vehicle: Klucel (hydroxypropylcellulose) (HPC)",94 % of control
same,T/C,"dose: 6.25 mg/kg/injection, schedule: Q01DX005 (ip), vehicle: Klucel (hydroxypropylcellulose) (HPC)",103 % of control
same,T/C,"dose: 12.5 mg/kg/injection, schedule: Q01DX005 (ip), vehicle: Klucel (hydroxypropylcellulose) (HPC)",100 % of control
same,T/C,"dose: 25.0 mg/kg/injection, schedule: Q01DX005 (ip), vehicle: Klucel (hydroxypropylcellulose) (HPC)",102 % of control and 95 % of control
CNP1(NC)=N[P@@](NC)(N2CC2)=NP(NC)(N2CC2)=N1 (stereo partly specified),T/C,"dose: 1.87 mg/kg/injection, schedule: Q01DX005 (ip), vehicle: saline",102 % of control
same,T/C,"dose: 7.5 mg/kg/injection, schedule: Q01DX005 (ip), vehicle: saline",158 % of control and 185 % of control
same,T/C,"dose: 15.0 mg/kg/injection, schedule: Q01DX005 (ip), vehicle: saline",171 % of control and 227 % of control
CC1SC2(C(=O)N(CN3CCCCC3)c3ccccc32)N(c2ccccc2)C1=O (stereo unspecified),T/C,[1],90 % of control
same,T/C,[2],100 % of control
same,T/C,[3],94 % of control
CCC1=NOC(n2c3ccccc3c3ccccc32)C1 (stereo unspecified),T/C,[1],100 % of control
same,T/C,[2],100 % of control
same,T/C,[3],95 % of control
CC(C)=CC1C(C(=O)OCc2ccc3c(c2)OCO3)C1(C)C (stereo unspecified),T/C,"dose: 50.0 mg/kg/injection, schedule: Q01DX009 (ip), vehicle: saline",107 % of control
same,T/C,"dose: 100.0 mg/kg/injection, schedule: Q01DX009 (ip), vehicle: saline",93 % of control
same,T/C,"dose: 200.0 mg/kg/injection, schedule: Q01DX009 (ip), vehicle: saline",99 % of control
same,T/C,"dose: 400.0 mg/kg/injection, schedule: Q01DX009 (ip), vehicle: saline",104 % of control
CCC(=O)C(=O)CC1CC(c2ccco2)=Nc2ccccc2S1 (stereo unspecified),T/C,[4],111 % of control
same,T/C,[5],113 % of control
same,T/C,[6],102 % of control
C=C/C(C)=C\CC/C(C)=C/c1cc(C(=O)O)co1,T/C,"dose: 4.0 mg/kg/injection, schedule: Q01DX009 (ip), vehicle: Klucel (hydroxypropylcellulose) (HPC)",104 % of control
same,T/C,"dose: 8.0 mg/kg/injection, schedule: Q01DX009 (ip), vehicle: Klucel (hydroxypropylcellulose) (HPC)",100 % of control
same,T/C,"dose: 16.0 mg/kg/injection, schedule: Q01DX009 (ip), vehicle: Klucel (hydroxypropylcellulose) (HPC)",99 % of control
same,T/C,"dose: 32.0 mg/kg/injection, schedule: Q01DX009 (ip), vehicle: Klucel (hydroxypropylcellulose) (HPC)",100 % of control
CC(NC(=O)C(Cc1c[nH]c2ccccc12)NC(=O)OCc1ccccc1)C(=O)O (stereo unspecified),T/C,[4],119 % of control
same,T/C,[5],103 % of control
same,T/C,[6],97 % of control
COc1ccc(OC(=O)c2ccccc2)c2c1C(=O)C=CC2=O,T/C,"dose: 1.56 mg/kg/injection, schedule: Q01DX005 (ip), vehicle: saline with Tween-80",116 % of control
same,T/C,"dose: 3.13 mg/kg/injection, schedule: Q01DX005 (ip), vehicle: saline with Tween-80",111 % of control
same,T/C,"dose: 6.25 mg/kg/injection, schedule: Q01DX005 (ip), vehicle: saline with Tween-80",111 % of control and 116 % of control
CSC(=S)NN=C1CCCCC1,T/C,"dose: 0.78 mg/kg/injection, schedule: Q01DX009 (ip), vehicle: saline with Tween-80",97 % of control
same,T/C,"dose: 1.56 mg/kg/injection, schedule: Q01DX009 (ip), vehicle: saline with Tween-80",108 % of control
same,T/C,"dose: 3.13 mg/kg/injection, schedule: Q01DX009 (ip), vehicle: saline with Tween-80",105 % of control
same,T/C,"dose: 6.25 mg/kg/injection, schedule: Q01DX009 (ip), vehicle: saline with Tween-80",98 % of control
same,T/C,"dose: 12.5 mg/kg/injection, schedule: Q01DX009 (ip), vehicle: saline with Tween-80",113 % of control

# — PubChem BioAssay AID330 (DTP/NCI, 2004)
